Experimental data: ChEMBL document CHEMBL3868634, “Animal models in the pharmacokinetic/pharmacodynamic evaluation of antimicrobial agents” (Bioorg Med Chem, 2016)

Assay: Ratio of AUC in mouse epithelial lining fluid to AUC in mouse serum
Assay type: ADME
Conditions: read-out: Ratio AUC

Structure (SMILES): CC(C)(O/N=C(\C(=O)N[C@@H]1C(=O)N2C(C(=O)[O-])=C(C[n+]3ccccc3)CS[C@H]12)c1csc(N)n1)C(=O)O [CEFTAZIDIME]
- Kp: 0.201
